The target of experiment [1] is T1, A2B receptor (Homo sapiens, UniProt P29275).
T1 sequence (P29275 1-332): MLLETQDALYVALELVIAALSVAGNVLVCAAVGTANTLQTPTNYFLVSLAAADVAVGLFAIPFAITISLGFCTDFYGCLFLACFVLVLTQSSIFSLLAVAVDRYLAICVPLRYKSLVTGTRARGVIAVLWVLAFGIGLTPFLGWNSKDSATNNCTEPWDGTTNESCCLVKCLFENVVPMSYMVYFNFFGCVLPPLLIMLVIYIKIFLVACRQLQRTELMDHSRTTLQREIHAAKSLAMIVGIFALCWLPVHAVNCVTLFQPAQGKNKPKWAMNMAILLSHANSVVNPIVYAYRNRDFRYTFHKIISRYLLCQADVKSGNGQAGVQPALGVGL
The experiment in a line: A2bR antagonism IC50, cAMP TR-FRET (Lance Ultra) in HEK-293 cells, NECA as agonist. The format is cell-based. On the set-up: host or cells: HEK-293. The settings on record: HEK-293 cells expressing A2B receptor; agonist NECA 30 nM (EC90); inhibition of cAMP. (TR-FRET usually uses a lanthanide donor and a delayed reading to cut background.)

Experiment [2] has as its target T2, A2A receptor (Homo sapiens, UniProt P29274).
T2 construct: host or cells: HEK-293
Briefly: A2aR antagonism IC50, cAMP TR-FRET (Lance Ultra) in HEK-293 cells, NECA as agonist.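 Note: compounds tested from 10 µM down to 0.08 nM in buffer with Rolipram at room temperature, TR-FRET cAMP signal read 1 h after adding Eu-cAMP tracer and ULight anti-cAMP.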 The format is cell-based. The settings on record: A2AR IC50 (nM) (@5 nM NECA), HEK-293 cells expressing A2A receptor; agonist NECA 5 nM (EC90); inhibition of cAMP.

For experiment [3], the target named is T2, A2A receptor. The experiment in a line: A2aR antagonism IC50, cAMP TR-FRET in HEK-293 cells, high concentration of adenosine (30 μM).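 Note: compounds added 10 min before adenosine, then 30 min stimulation at room temperature in buffer with 100 µM rolipram and 30 µM EHNA, signal read 1 h after detection reagents.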 The format is cell-based. The settings on record: HEK-293 cells expressing A2A receptor; agonist adenosine 30 μM; 2% HSA; inhibition of cAMP; read-out: A2AR IC50 (nM) (@30 μM Adenosine).
Experiment [4] deals with T1, A2B receptor. Briefly: A2bR antagonism IC50, cAMP TR-FRET in HEK-293 cells, high concentration of adenosine (30 μM).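 Note: compounds preincubated 10 min with cells, then adenosine stimulation 30 min at room temperature in buffer with Rolipram 100 µM and EHNA 30 µM, TR-FRET read after 1 h.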 The settings on record: A2BR IC50 (nM) (@30 μM Adenosine), HEK-293 cells expressing A2B receptor; agonist adenosine 30 μM; 2% HSA; inhibition of cAMP.

By IC50 is commonly meant the point on the concentration scale where inhibition reaches its midpoint.

T2 sequence (P29274 whole entry): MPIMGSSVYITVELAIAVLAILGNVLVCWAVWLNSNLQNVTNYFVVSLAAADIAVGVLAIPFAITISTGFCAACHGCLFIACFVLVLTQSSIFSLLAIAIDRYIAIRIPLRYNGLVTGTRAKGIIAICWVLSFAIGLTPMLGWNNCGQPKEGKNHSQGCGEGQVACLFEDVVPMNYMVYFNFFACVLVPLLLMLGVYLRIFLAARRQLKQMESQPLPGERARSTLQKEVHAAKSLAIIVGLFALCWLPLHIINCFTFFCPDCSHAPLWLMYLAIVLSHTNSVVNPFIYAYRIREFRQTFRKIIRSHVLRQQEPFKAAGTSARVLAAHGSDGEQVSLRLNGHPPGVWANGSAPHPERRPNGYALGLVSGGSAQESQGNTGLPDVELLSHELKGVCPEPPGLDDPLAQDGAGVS

In the case of `CCc1c(C)nn2c(N)c(C#N)c(NC(C)Cc3ccccn3)nc12` (single isomer, unassigned) [Example 22, 7-Amino-3-ethyl-2-methyl-5-((1-(pyridin-2-yl)propan-2-yl)amino) pyrazolo[1,5-a]pyrimidine-6-carbonitrile], the IC50 worked out at 2.2 nM at A2B receptor [1] and 2.5 nM at A2A receptor [2].
For `Cc1cccc(CCNc2nc3c(CC4CC4)c(C)nn3c(N)c2C#N)n1` [Example 26, 7-amino-3-(cyclopropylmethyl)-2-methyl-5-((2-(6-methylpyridin-2-yl)ethyl)amino) pyrazolo[1,5-a]pyrimidine-6-carbonitrile] the same measures were 0.83 nM and 2.9 nM.
On to `CCc1c(C)nn2c(N)c(C#N)c(NCCc3ccn(CC4(CO)CC4)n3)nc12` [Example 63, 7-amino-3-ethyl-5-((2-(1-((1-(hydroxymethyl)cyclopropyl)methyl)-1H-pyrazol-3-yl)ethyl)amino)-2-methylpyrazolo[1,5-a]pyrimidine-6-carbonitrile], for which the IC50 was determined as 7.3 nM at A2B receptor [1], 810 nM on A2A receptor [3] and 2800 nM at A2B receptor [4].
For `Cc1nn2c(N)c(C#N)c(NCCc3cccc(CO)n3)nc2c1C` [Example 44, 7-amino-5-((2-(6-(hydroxymethyl)pyridin-2-yl)ethyl)amino)-2,3-dimethylpyrazolo[1,5-a]pyrimidine-6-carbonitrile], the half-inhibitory concentration (IC50) at A2B receptor [1] turned out to be 2.3 nM; on A2A receptor [2] it was 1.3 nM.
As to `Cc1nn2c(N)c(C#N)c(NCCc3cccc(C(F)(F)CO)n3)nc2c1Cl` [Example 64, 7-amino-3-chloro-5-((2-(6-(1,1-difluoro-2-hydroxyethyl)pyridin-2-yl)ethyl)amino)-2-methylpyrazolo[1,5-a]pyrimidine-6-carbonitrile], the results for the 50% inhibitory concentration (IC50) at A2B receptor [1], at A2A receptor [3] and at A2B receptor [4] were 11 nM, 284 nM and 9070 nM, respectively.
In the case of `Cc1nn2c(N)c(C#N)c(NCCc3ccn(CCO)n3)nc2c1Cl` [Example 35], the IC50 at A2B receptor [1] worked out at 16 nM; on A2A receptor [2] it was 0.92 nM.
For the compound `Cc1nn2c(N)c(C#N)c(NCCc3ccn(CC4CC(O)C4)n3)nc2c1Cl` (racemic) [Example 82, (+−)-7-amino-3-chloro-5-((2-(1-((3-hydroxycyclobutyl)methyl)-1H-pyrazol-3-yl)ethyl)amino)-2-methylpyrazolo[1,5-a]pyrimidine-6-carbonitrile], the IC50 came to 7 nM on A2B receptor [1], 110 nM at A2A receptor [3] and 2340 nM on A2B receptor [4].
As for `CCc1cnn2c(N)c(C#N)c(NCCc3cc(C)n(C4(CO)CC4)n3)nc12` [Example 80, 7-amino-3-ethyl-5-((2-(1-(1-(hydroxymethyl)cyclopropyl)-5-methyl-1H-pyrazol-3-yl)ethyl)amino) pyrazolo[1,5-a]pyrimidine-6-carbonitrile], the IC50 was 12 nM on A2B receptor [1], 83 nM at A2A receptor [3] and 3800 nM at A2B receptor [4].
For the compound `CCc1c(C)nn2c(N)c(C#N)c(NCCc3ccc(C)cn3)nc12` [Example 18, 7-Amino-3-ethyl-2-methyl-5-((2-(5-methylpyridin-2-yl)ethyl)amino) pyrazolo[1,5-a]pyrimidine-6-carbonitrile], the values for the IC50 at A2B receptor [1] and at A2A receptor [2] were 9.5 nM and 5.5 nM, respectively.
`Cc1c(C2CC2)nn2c(N)c(C#N)c(NCCc3cccc(C(C)(C)O)n3)nc12` [Example 47, 7-amino-2-cyclopropyl-5-((2-(6-(2-hydroxypropan-2-yl)pyridin-2-yl)ethyl)amino)-3-methylpyrazolo[1,5-a]pyrimidine-6-carbonitrile] returned an IC50 on A2A receptor [2] of 7.2 nM.
Regarding `CCc1c(C)nn2c(N)c(C#N)c(NCCc3ccn(CCO)n3)nc12` [Example 54, 7-amino-3-ethyl-5-((2-(1-(2-hydroxyethyl)-1H-pyrazol-3-yl)ethyl)amino)-2-methylpyrazolo[1,5-a]pyrimidine-6-carbonitrile], the IC50 at A2B receptor [1] came out at 5 nM; at A2A receptor [2], 0.74 nM.
`Cc1cccc(CC(C)Nc2nc3c(C)c(C)nn3c(N)c2C#N)n1` (single isomer, unassigned) [Example 14, 7-amino-2,3-dimethyl-5-{[1-(6-methylpyridin-2-yl)propan-2-yl]amino}pyrazolo[1,5-a]pyrimidine-6-carbonitrile]: the results for the IC50 on A2B receptor [1] and at A2A receptor [2] were 7 nM and 1 nM, respectively.
Consider `CCc1c(C)nn2c(N)c(C#N)c(NCCc3ccn(C(C)CO)n3)nc12` (centres unmarked) [Example 81, 7-amino-3-ethyl-5-((2-(1-(1-hydroxypropan-2-yl)-1H-pyrazol-3-yl)ethyl)amino)-2-methylpyrazolo[1,5-a]pyrimidine-6-carbonitrile], for which the figures for the half-inhibitory concentration (IC50) at A2B receptor [1], at A2A receptor [3] and on A2B receptor [4] were 3.6 nM, 63 nM and 1050 nM, respectively.
Regarding `CCc1c(C)nn2c(N)c(C#N)c(NCCc3cccc(C4CC4CO)n3)nc12` (centres unmarked) [Example 60, 7-amino-3-ethyl-5-((2-(6-(2-(hydroxymethyl)cyclopropyl)284yridine-2-yl)ethyl)amino)-2-methylpyrazolo[1,5-a]pyrimidine-6-carbonitrile], the values for the IC50 at A2B receptor [1] and at A2A receptor [3] were 0.94 nM and 211 nM, respectively.
In the case of `CCc1c(C)nn2c(N)c(C#N)c(NCCc3ccn(CC4CC(O)C4)n3)nc12` (centres unmarked) [Example 85, 7-amino-3-ethyl-5-((2-(1-((3-hydroxycyclobutyl)methyl)-1H-pyrazol-3-yl)ethyl)amino)-2-methylpyrazolo[1,5-a] pyrimidine-6-carbonitrile], the half-maximal inhibitory concentration (IC50) is 3 nM on A2B receptor [1], 211 nM on A2A receptor [3] and 1070 nM on A2B receptor [4].
For the compound `Cc1nn2c(N)c(C#N)c(NCCc3ccn(C4CCC4CO)n3)nc2c1Cl` (centres unmarked) [Example 67, 7-amino-3-chloro-5-((2-(1-(2-(hydroxymethyl)cyclobutyl)-1H-pyrazol-3-yl)ethyl)amino)-2-methylpyrazolo[1,5-a]pyrimidine-6-carbonitrile], the results for the IC50 on A2A receptor [3], at A2B receptor [4] and on A2A receptor [2] were 50 nM, 1880 nM and 0.1 nM, respectively.
Regarding `CCc1c(C(F)F)nn2c(N)c(C#N)c(NCCc3cccc(C4CC4CO)n3)nc12` (centres unmarked) [Example 59, 7-amino-2-(difluoromethyl)-3-ethyl-5-((2-(6-(2-(hydroxymethyl)cyclopropyl)pyridin-2-yl)ethyl)amino)pyrazolo[1,5-a]pyrimidine-6-carbonitrile], the results for the 50% inhibitory concentration (IC50) on A2B receptor [1] and on A2A receptor [3] were 9 nM and 1080 nM, respectively.
On to `Cc1cccc(CCNc2nc3c(CC(C)C)c(C)nn3c(N)c2C#N)n1` [Example 27, 7-amino-3-(isopropylmethyl)-2-methyl-5-((2-(6-methylpyridin-2-yl)ethyl)amino) pyrazolo[1,5-a]pyrimidine-6-carbonitrile], for which the concentration for half-maximal inhibition (IC50) at A2B receptor [1] stood at 654 nM.
Take `Cc1nn2c(N)c(C#N)c(NCc3cccc(C(C)(C)O)n3)nc2c1C` [Example 9, 7-amino-5-({[6-(2-hydroxypropan-2-yl)pyridin-2-yl]methyl}amino)-2,3-dimethylpyrazolo[1,5-a] pyrimidine-6-carbonitrile]: the IC50 at A2B receptor [1] was 1130 nM.
Compound `CCc1c(C)nn2c(N)c(C#N)c(NCCc3cccc(OC)n3)nc12` [Example 20, 7-Amino-3-ethyl-5-((2-(6-methoxypyridin-2-yl)ethyl)amino)-2-methylpyrazolo [1,5-a]pyrimidine-6-carbonitrile] showed an IC50 on A2B receptor [1] of 4 nM.
At A2A receptor [2], `Cc1nn2c(N)c(C#N)c(NCCc3cccc(CO)n3)nc2c1CC1CC1` [Example 46, 7-amino-3-(cyclopropylmethyl)-5-((2-(6-(hydroxymethyl)pyridin-2-yl)ethyl)amino)-2-methylpyrazolo[1,5-a]pyrimidine-6-carbonitrile] returned an IC50 of 1.9 nM.
